The conditions of this series: 298.15 K, 101.33 kPa, Liquid.

Structures are written as SMILES. Numbers after ± are expanded uncertainties.

`OCCO` [1,2-ethanediol]: for the setting “Alternating current cell with electrodes”, the electrical conductivity worked out at 9.2e-05 ± 2e-06 S/m. For the same compound, the thermal conductivity (Transient line heat source) is listed as 0.2438 ± 0.011 W/m/K.

The values above are taken from the NIST ThermoML archive (doi:10.1016/j.tca.2016.05.006).
